Experimental data reported in patent US20210171604A1, “PEPTIDES FOR THE TREATMENT OF TYPE 2 DIABETES” (YISSUM RESEARCH DEVELOPMENT COMPANY OF THE HEBREW …, priority 2017, published 2021).
Marks after values point to notes of the source that are not given here. [ ]: non-standard residue; d: D form. The star is where a group is joined. Stearoyl = CCCCCCCCCCCCCCCCCC(=O)*; Myristoyl = CCCCCCCCCCCCCC(=O)*; Nle = CCCC[C@H](N)C(=O)O; Nva = CCC[C@H](N)C(=O)O

Tests used:
[1] = system: obese diabetic mice (db/db); experiment: Blood glucose response of obese diabetic (db/db) mice to peptide treatment; assay type: in vivo; settings: for Blood glucose: mean, n=3; for % change from time point (−4) in blood glucose: compared to first baseline (241 mg/dL)
Protocol: ACD-004 was tested for its effect on hyperglycemia in obese diabetic mice (db/db).
Protocol: Mice (n=3) were kept on normal, unlimited diet. Prior to peptide treatment, baseline measurements of blood glucose and body weight were taken every ˜3 weeks through a period of 2.5 months (see time points (−1)-(−4) in Table 3 below). Injections of the peptide (intraperitoneally, ˜35 mg/kg) started on time point 0 and continued on time points 1 and 2, twice a day. Blood glucose and body weight were measured at the indicated days.
The results, summarized in Table 3, are expressed as mean % change in blood glucose compared to the first baseline measurement (time point (−4)).
Mice (n=16) were kept on normal, unlimited diet. Injections of the peptide (i.p., 20 mg/kg, n=9) or vehicle (i.p., n=7) started at 3-4 m of age (time point ‘0’) and continued for 3 days, once a day. In a similar experiment the peptide […] were injected to mice with severe diabetes for 7 days.

male C57BL mice = experiment: Inhibition of starvation-induced insulin resistance (blood glucose after 8 h starvation); assay type: in vivo; settings: for inhibition of starvation-induced insulin-resistance (words, FIG. 1): Example 5, 20 mg/kg i.p., relative change in blood glucose compared to time 0 (=100%); for inhibition of insulin-resistance developed in the course of starvation: i.p. ~35 mg/kg, 8 h starvation, compared to vehicle; for % blood glucose decrease following 8 h starvation / Mean blood glucose after 8 h starvation (% of time 0): i.p. 1 mg/mouse (~35 mg/kg); for % blood glucose decrease following 8 h starvation: compared with time 0; for Mean blood glucose after 8 h starvation (% of time 0): level after 8 h starvation compared to t0 (=100%), vehicle 90.3
Protocol: Protocol: Blood glucose was measured in the morning (time 0). The mice were then injected intraperitoneally with a peptide (1 mg/mouse=˜35 mg/kg) or with a vehicle and placed in a cage with water but no food. After 8 hrs starvation, blood glucose was measured again and the mice were supplied with food. […]
The ability of the peptides ACD-403.3, ACD-047.7 and ACD-040.2 described in Example 1 above, to inhibit insulin-resistance induced by starvation was tested in mice (male C57BL mice ˜9-10 wks old).
Peptides' solutions for injection were prepared as follows: 5 mg peptide were dissolved in 1 ml of a solution composed of 5% hydroxypropyl-beta-cyclodextrin (HPβCD)+2% Propylene glycol (PG)+2% Tween-80 in DDW (Wt/Vol). If needed, the solution was warmed up to 80° C. to facilitate peptide solubilization. 0.2 ml of this solution, or from a vehicle (no peptide), were injected i.p. into the mice.
The results, summarized in Table 4 below, are expressed as % change in blood glucose level after 8 h starvation, compared to t0 (=100%), as well as % decrease in blood glucose after 8 hrs starvation, compared with blood glucose at time 0. A higher decrease in glucose levels in the blood indicates better intake of glucose by cells, which reflects better inhibition of the starvation-induced insulin resistance. […]

[2] = HPβCD/PG/Tween-80 vehicle, vehicle 9.7%
[3] = DMSO/Brij-97 vehicle, vehicle 14%

## Stear-G-R-N-F-Q-K-G-Q-V-T-R-NH2 (Stearoyl-GRNFQKGQVTR-NH2; SMILES CCCCCCCCCCCCCCCCCC(=O)NCC(=O)N[C@@H](CCCNC(=N)N)C(=O)N[C@@H](CC(N)=O)C(=O)N[C@@H](Cc1ccccc1)C(=O)N[C@@H](CCC(N)=O)C(=O)N[C@@H](CCCCN)C(=O)NCC(=O)N[C@@H](CCC(N)=O)C(=O)N[C@H](C(=O)N[C@H](C(=O)N[C@@H](CCCNC(=N)N)C(N)=O)[C@@H](C)O)C(C)C) [ACD-400.3, identical to ACD-004 except N-terminal acyl group is stearoyl instead of myristoyl]
[1]; (db/db) mice with severe diabetes, injected for 7 days, vs vehicle
  blood glucose following 7-day treatment (words, FIG. 3): outstanding decrease in blood glucose
[1]; i.p. 20 mg/kg once a day for 3 days, n=9 vs vehicle n=7
  blood glucose following 3-day treatment (words, FIG. 2): outstanding decrease in blood glucose

## Myr-G-R-N-I-Q-K-G-Q-V-T-R-NH2 (Myristoyl-GRNIQKGQVTR-NH2; SMILES CCCCCCCCCCCCCC(=O)NCC(=O)N[C@@H](CCCNC(=N)N)C(=O)N[C@@H](CC(N)=O)C(=O)N[C@H](C(=O)N[C@@H](CCC(N)=O)C(=O)N[C@@H](CCCCN)C(=O)NCC(=O)N[C@@H](CCC(N)=O)C(=O)N[C@H](C(=O)N[C@H](C(=O)N[C@@H](CCCNC(=N)N)C(N)=O)[C@@H](C)O)C(C)C)[C@@H](C)CC) [ACD-047.8]
Male C57BL mice
  inhibition of starvation-induced insulin-resistance (words, FIG. 1): inactive

## Myr-G-R-N-NorVal-Q-K-G-Q-V-T-R-NH2 (Myristoyl-GRN[Nva]QKGQVTR-NH2; SMILES CCCCCCCCCCCCCC(=O)NCC(=O)N[C@@H](CCCNC(=N)N)C(=O)N[C@@H](CC(N)=O)C(=O)N[C@@H](CCC)C(=O)N[C@@H](CCC(N)=O)C(=O)N[C@@H](CCCCN)C(=O)NCC(=O)N[C@@H](CCC(N)=O)C(=O)N[C@H](C(=O)N[C@H](C(=O)N[C@@H](CCCNC(=N)N)C(N)=O)[C@@H](C)O)C(C)C) [ACD-040.2, myristoylated, amidated peptide derived from h-HO-1]
Male C57BL mice; Example 4
  inhibition of insulin-resistance developed in the course of starvation: effectively inhibited insulin-resistance
Male C57BL mice; [2]
  % blood glucose decrease following 8 h starvation: 36.6%
Male C57BL mice; HPβCD/PG/Tween-80 vehicle
  Mean blood glucose after 8 h starvation (% of time 0): 63.4** %

## Myr-G-R-N-Nle-Q-K-G-Q-V-T-R-NH2 (Myristoyl-GRN[Nle]QKGQVTR-NH2; SMILES CCCCCCCCCCCCCC(=O)NCC(=O)N[C@@H](CCCNC(=N)N)C(=O)N[C@@H](CC(N)=O)C(=O)N[C@@H](CCCC)C(=O)N[C@@H](CCC(N)=O)C(=O)N[C@@H](CCCCN)C(=O)NCC(=O)N[C@@H](CCC(N)=O)C(=O)N[C@H](C(=O)N[C@H](C(=O)N[C@@H](CCCNC(=N)N)C(N)=O)[C@@H](C)O)C(C)C) [ACD-047.9]
Male C57BL mice
  inhibition of starvation-induced insulin-resistance (words, FIG. 1): inactive

## Myr-G-F-T-K-G-Q-V-T-NH2 (Myristoyl-GFTKGQVT-NH2; SMILES CCCCCCCCCCCCCC(=O)NCC(=O)N[C@@H](Cc1ccccc1)C(=O)N[C@H](C(=O)N[C@@H](CCCCN)C(=O)NCC(=O)N[C@@H](CCC(N)=O)C(=O)N[C@H](C(=O)N[C@H](C(N)=O)[C@@H](C)O)C(C)C)[C@@H](C)O) [ACD-005, myristoylated, amidated peptide derived from h-HIF1α]
Male C57BL mice; Example 2
  inhibition of insulin-resistance developed in the course of starvation: effectively inhibited insulin-resistance
Male C57BL mice; [3]
  % blood glucose decrease following 8 h starvation: 49%

## Myr-G-R-N-L-Q-K-G-Q-V-T-R-NH2 (Myristoyl-GRNLQKGQVTR-NH2; SMILES CCCCCCCCCCCCCC(=O)NCC(=O)N[C@@H](CCCNC(=N)N)C(=O)N[C@@H](CC(N)=O)C(=O)N[C@@H](CC(C)C)C(=O)N[C@@H](CCC(N)=O)C(=O)N[C@@H](CCCCN)C(=O)NCC(=O)N[C@@H](CCC(N)=O)C(=O)N[C@H](C(=O)N[C@H](C(=O)N[C@@H](CCCNC(=N)N)C(N)=O)[C@@H](C)O)C(C)C) [ACD-047.7, myristoylated, amidated peptide derived from h-HO-1]
Male C57BL mice; Example 4
  inhibition of insulin-resistance developed in the course of starvation: effectively inhibited insulin-resistance
Male C57BL mice
  inhibition of starvation-induced insulin-resistance (words, FIG. 1): inhibited significantly
Male C57BL mice; [2]
  % blood glucose decrease following 8 h starvation: 39.2%
Male C57BL mice; HPβCD/PG/Tween-80 vehicle
  Mean blood glucose after 8 h starvation (% of time 0): 60.8** %

## Stear-G-R-N-H-Q-K-G-Q-V-T-R-NH2 (Stearoyl-GRNHQKGQVTR-NH2; SMILES CCCCCCCCCCCCCCCCCC(=O)NCC(=O)N[C@@H](CCCNC(=N)N)C(=O)N[C@@H](CC(N)=O)C(=O)N[C@@H](Cc1c[nH]cn1)C(=O)N[C@@H](CCC(N)=O)C(=O)N[C@@H](CCCCN)C(=O)NCC(=O)N[C@@H](CCC(N)=O)C(=O)N[C@H](C(=O)N[C@H](C(=O)N[C@@H](CCCNC(=N)N)C(N)=O)[C@@H](C)O)C(C)C) [ACD-403.3, stearoylated, amidated peptide derived from h-HO-1]
Male C57BL mice; Example 4
  inhibition of insulin-resistance developed in the course of starvation: effectively inhibited insulin-resistance
Male C57BL mice; [2]
  % blood glucose decrease following 8 h starvation: 36.7%
Male C57BL mice; HPβCD/PG/Tween-80 vehicle
  Mean blood glucose after 8 h starvation (% of time 0): 63.3** %

## Myr-G-R-N-F-Q-K-G-Q-V-T-R-NH2 (Myristoyl-GRNFQKGQVTR-NH2; SMILES CCCCCCCCCCCCCC(=O)NCC(=O)N[C@@H](CCCNC(=N)N)C(=O)N[C@@H](CC(N)=O)C(=O)N[C@@H](Cc1ccccc1)C(=O)N[C@@H](CCC(N)=O)C(=O)N[C@@H](CCCCN)C(=O)NCC(=O)N[C@@H](CCC(N)=O)C(=O)N[C@H](C(=O)N[C@H](C(=O)N[C@@H](CCCNC(=N)N)C(N)=O)[C@@H](C)O)C(C)C) [ACD-004, myristoylated, C-terminally amidated peptide derived from h-HO-1]
Male C57BL mice; Example 2
  inhibition of insulin-resistance developed in the course of starvation: effectively inhibited insulin-resistance
Male C57BL mice; [3]
  % blood glucose decrease following 8 h starvation: 47%
[1]; ACD-004 i.p. ~35 mg/kg twice a day at time points 0-2, time point 3, age 18.3 wks
  Blood glucose: 105 mg/dL
[1]; ACD-004 i.p. ~35 mg/kg twice a day from time point 0, time point 1, age 17.9 wks
  Blood glucose: 177 mg/dL
[1]; ACD-004 i.p. ~35 mg/kg twice a day from time point 0, time point 2, age 18.1 wks
  Blood glucose: 139 mg/dL
[1]; Example 3, i.p. ~35 mg/kg twice a day
  effect on blood glucose levels in diabetic mice: effectively reduced blood glucose levels
[1]; time point 1
  % change from time point (−4) in blood glucose: −27%
[1]; time point 2
  % change from time point (−4) in blood glucose: −42%
[1]; time point 3
  % change from time point (−4) in blood glucose: −56%
